Experimental data: US6838414B2, “Substituted aryl sulphonyl(thio)ureas used as herbicides” (Bayer Aktiengesellschaft, priority 1996, dated 2005)

Tests used:
Type in all cases: in vivo
[1] = system: Abutilon; assay: Post-emergence test/greenhouse; conditions: rated after three weeks vs untreated control
Protocol: (§1) To produce a suitable preparation of active compound, 1 part by weight of active compound is mixed with the stated amount of solvent, the stated amount of emulsifier is added and the concentrate is diluted with water to the desired concentration.
(§2) Test plants which have a height of 5-15 cm are sprayed with the preparation of the active compound in such a way as to apply the particular amounts of active compound desired per unit area. The concentration of the spray liquor is chosen so that the amounts of active compound desired in each case are applied in 1000 l of water/ha.
(§3) After three weeks, the degree of damage to the plants is rated in % damage in comparison with the development of the untreated control.
(§4) The figures denote: • 0%=no effect (like untreated control) • 100%=total destruction

[2] = system: Matricaria; assay: Post-emergence test/greenhouse; conditions: rated after three weeks vs untreated control
Protocol: as §1, §2, §3, §4

[3] = system: Alopecurus; assay: Post-emergence test/greenhouse; conditions: rated after three weeks vs untreated control
Protocol: as §1, §2, §3, §4

[4] = system: Echinochloa; assay: Post-emergence test/greenhouse; conditions: rated after three weeks vs untreated control
Protocol: as §1, §2, §3, §4

[5] = system: weeds; assay: Post-emergence test/greenhouse
Protocol: as §1, §2, §3, §4

[6] = system: weeds; assay: Pre-emergence test (overall statement); conditions: application rates between 30 g and 125 g of a.i. per hectare
Protocol: as §1
(§5) Seeds of the test plants are sown in normal soil. After about 24 hours, the soil is sprayed with the preparation of the active compound. Advantageously, the amount of water per unit area is kept constant. The active compound concentration in the preparation is not important, only the active compound application rate per unit area is critical.
as §3, §4

[7] = system: Amaranthus; assay: Pre-emergence test/greenhouse; conditions: after three weeks
Protocol: as §1, §5, §3, §4

[8] = system: Sorghum; assay: Pre-emergence test/greenhouse; conditions: after three weeks
Protocol: as §1, §5, §3, §4

[9] = system: Alopecurus; assay: Pre-emergence test/greenhouse; conditions: after three weeks
Protocol: as §1, §5, §3, §4

[10] = system: Lolium; assay: Pre-emergence test/greenhouse; conditions: after three weeks
Protocol: as §1, §5, §3, §4

[11] = system: Stellaria; assay: Pre-emergence test/greenhouse; conditions: after three weeks
Protocol: as §1, §5, §3, §4

[12] = system: Chenopodium; assay: Pre-emergence test/greenhouse; conditions: after three weeks
Protocol: as §1, §5, §3, §4

[13] = application rate 60 g of ai./ha
[14] = application rate 30 g of ai./ha

Compound | activity against weeds [5] | activity against weeds [6] | degree of damage to the plants, Abutilon [1, 14] [%] | degree of damage to the plants, Matricaria [2, 14] [%] | degree of damage to the plants, Alopecurus [3, 14] [%] | degree of damage to the plants, Echinochloa [4, 14] [%] | Amaranthus, % damage ([7]; 30 g of ai./ha) [%] | Sorghum, % damage ([8]; 30 g of ai./ha) [%] | Alopecurus, % damage ([9]; 30 g of ai./ha) [%] | Lolium, % damage ([10]; 30 g of ai./ha) [%] | Steltaria, % damage ([11]; 30 g of ai./ha) [%] | Chenopodium, % damage ([12]; 30 g of ai./ha) [%] | also measured
CCOc1cccc(C)c1S(=O)(=O)NC(=O)Nc1nc(C)nc(OC)n1 [Example 32] | very strong activity against weeds | very strong activity against weeds | – | – | – | – | – | – | – | – | – | – | degree of damage to the plants, Abutilon [1, 13]: 100%; degree of damage to the plants, Matricaria [2, 13]: 100%; degree of damage to the plants, Alopecurus [3, 13]: 70%; degree of damage to the plants, Echinochloa [4, 13]: 90%; Amaranthus, % damage ([7]; 60 g of ai./ha): 100%; Sorghum, % damage ([8]; 60 g of ai./ha): 95%; Alopecurus, % damage ([9]; 60 g of ai./ha): 95%; Lolium, % damage ([10]; 60 g of ai./ha): 100%; Steltaria, % damage ([11]; 60 g of ai./ha): 100%; Chenopodium, % damage ([12]; 60 g of ai./ha): 100%
COc1nc(NC(=O)NS(=O)(=O)c2c(C)cccc2OC(C)C)nc(OC)n1 [Example 38] | very strong activity against weeds | very strong activity against weeds | 95 | 95 | 60 | 70 | 80 | 100 | 100 | 100 | 100 | 100 | –
COc1nc(NC(=O)NS(=O)(=O)c2c(C)cccc2OC(C)C)nc(OC)n1 [Example 39] | very strong activity against weeds | very strong activity against weeds | 100 | 100 | 90 | 95 | 100 | 100 | 100 | 100 | 100 | 100 | –
COc1nc(C)nc(NC(=O)NS(=O)(=O)c2c(C)cccc2OC)n1 [Example 40] | very strong activity against weeds | very strong activity against weeds | 95 | 100 | 100 | 95 | 100 | 100 | 100 | 100 | 100 | 100 | –
COc1cccc(C)c1S(=O)(=O)NC(=O)Nc1nc(C)cc(C)n1 [Example 41] | very strong activity against weeds | very strong activity against weeds | 90 | 70 | 60 | 95 | 60 | 100 | 95 | 100 | 80 | 100 | –
COc1cc(C)nc(NC(=O)NS(=O)(=O)c2c(C)cccc2OC)n1 [Example 43] | very strong activity against weeds | very strong activity against weeds | 100 | 100 | 60 | 95 | 100 | 100 | 100 | 100 | 100 | 100 | –
COc1cc(OC)nc(NC(=O)NS(=O)(=O)c2c(C)cccc2OC)n1 [Example 44] | very strong activity against weeds | very strong activity against weeds | 100 | 100 | 60 | 90 | 100 | 100 | 100 | 100 | 100 | 100 | –
CCCOc1cccc(C)c1S(=O)(=O)NC(=O)Nc1nc(OC)nc(OC)n1 [Example 48] | very strong activity against weeds | very strong activity against weeds | – | – | – | – | – | – | – | – | – | – | degree of damage to the plants, Abutilon [1, 13]: 100%; degree of damage to the plants, Matricaria [2, 13]: 90%; degree of damage to the plants, Alopecurus [3, 13]: 95%; degree of damage to the plants, Echinochloa [4, 13]: 70%; Amaranthus, % damage ([7]; 60 g of ai./ha): 100%; Sorghum, % damage ([8]; 60 g of ai./ha): 100%; Alopecurus, % damage ([9]; 60 g of ai./ha): 100%; Lolium, % damage ([10]; 60 g of ai./ha): 100%; Steltaria, % damage ([11]; 60 g of ai./ha): 100%; Chenopodium, % damage ([12]; 60 g of ai./ha): 100%
CCCOc1cccc(C)c1S(=O)(=O)NC(=O)Nc1nc(C)nc(OC)n1 [Example 49] | very strong activity against weeds | very strong activity against weeds | 100 | 100 | 90 | 80 | 100 | 100 | 100 | 100 | 100 | 100 | –
